In test [1] the test system is OR13a. As to conditions: insect cell line stably expressing OR13a; read-out: EC50 of concentration-dependent Ca2+ signals; cited from earlier work.
Test [2] has as its system OR13a. As to conditions: Bactrocera dorsalis OR13a in HEK293 cells; read-out: EC50 in fluorescent measurements; cited from earlier work.
In test [3] the target is T1, Drosophila OR71a (Drosophila melanogaster, UniProt Q9VUK5).
T1 construct: expressed in transfected cells
T1 sequence (Q9VUK5 1-378): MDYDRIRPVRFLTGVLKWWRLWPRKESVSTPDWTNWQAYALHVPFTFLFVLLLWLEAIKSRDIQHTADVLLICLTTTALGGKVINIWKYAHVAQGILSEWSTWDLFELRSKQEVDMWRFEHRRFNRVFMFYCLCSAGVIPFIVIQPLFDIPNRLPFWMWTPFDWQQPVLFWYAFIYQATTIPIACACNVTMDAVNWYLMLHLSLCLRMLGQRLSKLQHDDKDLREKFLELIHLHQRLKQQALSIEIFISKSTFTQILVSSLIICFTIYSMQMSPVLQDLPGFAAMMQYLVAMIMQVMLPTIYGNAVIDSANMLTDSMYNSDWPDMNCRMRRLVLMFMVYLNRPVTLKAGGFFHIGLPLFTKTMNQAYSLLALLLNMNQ
T1 sequence (Q9VNB5 1-486 partner): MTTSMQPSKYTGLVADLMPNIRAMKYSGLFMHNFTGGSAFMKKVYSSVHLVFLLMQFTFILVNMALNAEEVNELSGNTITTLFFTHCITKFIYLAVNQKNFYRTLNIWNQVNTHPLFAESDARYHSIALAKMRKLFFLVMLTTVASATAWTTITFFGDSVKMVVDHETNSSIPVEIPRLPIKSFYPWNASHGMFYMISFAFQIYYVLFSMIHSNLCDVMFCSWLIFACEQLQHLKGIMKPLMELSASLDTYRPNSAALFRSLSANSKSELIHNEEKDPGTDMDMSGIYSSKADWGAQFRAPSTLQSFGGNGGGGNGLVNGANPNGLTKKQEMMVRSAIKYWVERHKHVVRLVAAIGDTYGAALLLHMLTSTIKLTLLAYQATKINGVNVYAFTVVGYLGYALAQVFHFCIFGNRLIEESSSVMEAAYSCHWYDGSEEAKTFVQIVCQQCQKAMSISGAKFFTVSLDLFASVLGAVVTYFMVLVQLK
In words: cell-based. As to conditions: HEK293; relative to 50 uM VUAA1 response; below 0.05 set to 0; read-out: % activation. More on the design: GCaMP6 calcium fluorescence in stable HEK293 OR+ORCO lines; peak dF normalised to 50 uM VUAA1 (=1). The method, boiled down: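 Responses to VOCs (1, 10, 100 µM final) were read as fluorescence rise over baseline for 30 s in cells expressing the OR after 48–72 h doxycycline induction, in pH 7.3 buffer. ΔF values were divided by the same line's mean ΔF to 50 µM VUAA1 on that plate. Data are means of replicate days.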

Read-outs that look alike come from different tables or passages of the source.

The source of these data is publication PMC10709440, “High-throughput ligand profile characterization in novel cell lines expressing seven heterologous insect olfactory receptors for the detection of volatile plant biomarkers” (Scientific Reports, 2023).

`C=CC(O)CCCCC` (centres unmarked) [1-octen-3-ol]: the values for the EC50 in test [1] and in test [2] were 4.33 µM and 11.3 µM, respectively.

`CC/C=C/CCO` [e3-hexenol]: in test [3], the activity at 1 µM turned out to be 0%, the activity at 10 µM came out at 0% and the activity at 100 µM stood at 0%.
